From patent US9187484B2 (Southern Research Institute, priority 2012, dated 2015)

biological target: T1, LRRK2 (G2019S) (Homo sapiens, UniProt Q5S007, G2019S); test: LRRK2 inhibition, radiometric kinase assay with recombinant GST-LRRK2 (delta970) and peptide substrate; assay type: biochemical; conditions: GST-LRRK2 (delta970) G2019S 30 nM, ATP ~52 μM (Km), 30 min at 30° C.
T1 construct: Recombinant GST-LRRK2 (delta970), purified from baculovirus infected insect cells (SF9); GST (N); host or cells: baculovirus infected insect cells (SF9)
T1 sequence (Q5S007 970-2527 G2019S limits assumed): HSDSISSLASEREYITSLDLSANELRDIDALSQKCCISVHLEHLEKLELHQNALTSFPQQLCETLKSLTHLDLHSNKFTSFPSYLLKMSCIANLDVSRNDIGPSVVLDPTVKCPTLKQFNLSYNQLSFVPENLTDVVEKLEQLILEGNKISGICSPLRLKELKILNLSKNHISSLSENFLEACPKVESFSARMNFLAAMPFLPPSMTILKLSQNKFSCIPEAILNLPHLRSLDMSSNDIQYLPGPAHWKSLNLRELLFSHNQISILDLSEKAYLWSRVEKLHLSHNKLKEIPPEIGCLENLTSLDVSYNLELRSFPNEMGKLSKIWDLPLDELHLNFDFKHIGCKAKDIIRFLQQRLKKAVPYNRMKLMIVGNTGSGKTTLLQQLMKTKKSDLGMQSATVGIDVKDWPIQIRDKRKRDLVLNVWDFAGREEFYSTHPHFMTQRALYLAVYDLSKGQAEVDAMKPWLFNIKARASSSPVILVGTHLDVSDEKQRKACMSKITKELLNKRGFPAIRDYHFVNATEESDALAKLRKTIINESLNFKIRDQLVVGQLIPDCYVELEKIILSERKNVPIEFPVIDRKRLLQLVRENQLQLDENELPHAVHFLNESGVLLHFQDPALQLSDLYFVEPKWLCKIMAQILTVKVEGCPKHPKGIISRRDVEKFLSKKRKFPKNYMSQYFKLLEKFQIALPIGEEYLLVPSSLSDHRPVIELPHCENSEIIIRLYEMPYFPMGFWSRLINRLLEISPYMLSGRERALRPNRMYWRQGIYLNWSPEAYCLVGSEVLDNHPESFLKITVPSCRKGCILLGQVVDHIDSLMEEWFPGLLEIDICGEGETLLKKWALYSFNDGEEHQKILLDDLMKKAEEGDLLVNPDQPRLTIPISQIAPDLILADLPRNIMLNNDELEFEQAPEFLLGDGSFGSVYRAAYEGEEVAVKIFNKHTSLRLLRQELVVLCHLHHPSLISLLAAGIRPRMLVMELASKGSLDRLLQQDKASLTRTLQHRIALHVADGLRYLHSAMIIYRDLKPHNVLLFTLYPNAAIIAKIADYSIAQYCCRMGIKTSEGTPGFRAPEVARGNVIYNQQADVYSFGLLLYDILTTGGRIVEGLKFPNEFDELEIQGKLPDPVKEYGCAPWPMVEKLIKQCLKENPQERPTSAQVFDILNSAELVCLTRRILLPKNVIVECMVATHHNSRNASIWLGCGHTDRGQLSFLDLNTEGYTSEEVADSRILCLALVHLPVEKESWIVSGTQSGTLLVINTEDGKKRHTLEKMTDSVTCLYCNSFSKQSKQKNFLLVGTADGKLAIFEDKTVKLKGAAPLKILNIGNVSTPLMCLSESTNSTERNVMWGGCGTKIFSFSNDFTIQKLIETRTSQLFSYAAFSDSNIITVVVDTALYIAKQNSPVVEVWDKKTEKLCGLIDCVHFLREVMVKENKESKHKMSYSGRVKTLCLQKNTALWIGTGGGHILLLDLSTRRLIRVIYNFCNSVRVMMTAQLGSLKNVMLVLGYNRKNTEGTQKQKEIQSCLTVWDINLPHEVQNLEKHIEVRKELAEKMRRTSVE
Description: Compounds were assessed for inhibition of LRRK2 inhibition using the following procedure.
Recombinant GST-LRRK2 (delta970), purified from baculovirus infected insect cells (SF9), at least 90% pure and either wild-type sequence or bearing the pathogenic G2019S mutation, was combined into a kinase buffer at 30 nM concentration. Kinase buffer consists of 50 mM Tris HCl pH 7.4, 1 mM EDTA, and 50 μM peptide substrate (amino acid sequence […]). Experimental compounds or control (no compound) were added at desired concentrations in DMSO and water, where final concentration of DMSO in kinase reactions was 0.1% for all drug concentrations. Activation buffer that consists of a final concentration in the reactions of 10 mM MgCl2 and ATP (˜92 μM for WT-LRRK2 reactions and ˜52 μM for G2019S-LRRK2, which represent respective Km ATP concentrations) were added to each reaction, in addition to 0.5 μCi of gamma-32-P-dATP per reaction. Reactions were incubated at 1400 RPM at 30° C. for 30 min. and then spotted in triplicate directly onto a slot-blot apparatus fitted with phospho-cellulose paper and allowed to dry. Each slot was then washed with 10 mM phosphoric acid buffer until beta-radiation could not be detected in eluted wash buffer, usually ˜1 mL per slot. Paper within each slot were excised and radiation measured by liquid scintillation.

Row | SMILES | IC50 [nM]
1 | CCC(Sc1ccc2nnc(-c3cccs3)n2n1)C(=O)N1CCCC1 (centres unmarked) [Example 46, 1-(pyrrolidin-1-yl)-2-((3-(thiophen-2-yl)-[1,2,4]triazolo[4,3-b]pyridazin-6-yl)thio)butan-1-one] | < 100
2 | CCC(Sc1ccc2nnc(-c3cccs3)n2n1)C(=O)N1CCOCC1 (centres unmarked) [Example 47, 1-morpholino-2-((3-(thiophen-2-yl)-[1,2,4]triazolo[4,3-b]pyridazin-6-yl)thio)butan-1-one] | 100 to 1000
3 | CCC(Sc1ccc2nnc(-c3cccs3)n2n1)C(=O)NCc1cccs1 (centres unmarked) [Example 48, 2-((3-(thiophen-2-yl)-[1,2,4]triazolo[4,3-b]pyridazin-6-yl)thio)-N-(thiophen-2-ylmethyl)butanamide] | 100 to 1000
4 | Cc1ccc(-c2nnc3ccc(SCC(N)=O)nn23)s1 [Example 49, 2-((3-(5-methylthiophen-2-yl)-[1,2,4]triazolo[4,3-b]pyridazin-6-yl)thio)acetamide] | 100 to 1000
5 | CCC(Sc1ccc2nnc(-c3cccs3)n2n1)C(=O)N1CCCCCC1 (centres unmarked) [Example 50, 1-(azepan-1-yl)-2-((3-(thiophen-2-yl)-[1,2,4]triazolo[4,3-b]pyridazin-6-yl)thio)butan-1-one] | ≥ 5000
6 | CCC(Sc1ccc2nnc(-c3cccs3)n2n1)C(=O)N1CCCC(C)C1 (centres unmarked) [Example 51, 1-(3-methylpiperidin-1-yl)-2-((3-(thiophen-2-yl)-[1,2,4]triazolo[4,3-b]pyridazin-6-yl)thio)butan-1-one] | 100 to 1000
7 | CCC(Sc1ccc2nnc(-c3cccs3)n2n1)C(=O)NC1CCCCC1 (centres unmarked) [Example 52, N-cyclohexyl-2-((3-(thiophen-2-yl)-[1,2,4]triazolo[4,3-b]pyridazin-6-yl)thio)butanamide] | 100 to 1000
8 | CCC(Sc1ccc2nnc(-c3ccc(C(F)(F)F)cc3)n2n1)C(=O)O (centres unmarked) [Example 53, 2-((3-(4-(trifluoromethyl)phenyl)-[1,2,4]triazolo[4,3-b]pyridazin-6-yl)thio)butanoic acid] | ≥ 5000
9 | CCC(Sc1ccc2nnc(-c3ccc(F)c(F)c3)n2n1)C(=O)O (centres unmarked) [Example 54, 2-((3-(3,4-difluorophenyl)-[1,2,4]triazolo[4,3-b]pyridazin-6-yl)thio)butanoic acid] | 100 to 1000
10 | CCC(Sc1ccc2nnc(-c3ccccc3F)n2n1)C(=O)O (centres unmarked) [Example 55, 2-((3-(2-fluorophenyl)-[1,2,4]triazolo[4,3-b]pyridazin-6-yl)thio)butanoic acid] | 100 to 1000
11 | CCC(Sc1ccc2nnc(-c3cccc(F)c3)n2n1)C(=O)O (centres unmarked) [Example 56, 2-((3-(3-fluorophenyl)-[1,2,4]triazolo[4,3-b]pyridazin-6-yl)thio)butanoic acid] | 100 to 1000
12 | Cc1ccc(-c2nnc3ccc(SCC(=O)N4CCCCC4)nn23)s1 [Example 57, 2-((3-(5-methylthiophen-2-yl)-[1,2,4]triazolo[4,3-b]pyridazin-6-yl)thio)-1-(piperidin-1-yl)ethanone] | 1000 to 5000
13 | CCC(Sc1ccc2nnc(-c3cccs3)n2n1)C(=O)N1CCN(C)CC1 (centres unmarked) [Example 58, 1-(4-methylpiperazin-1-yl)-2-((3-(thiophen-2-yl)-[1,2,4]triazolo[4,3-b]pyridazin-6-yl)thio)butan-1-one] | ≥ 5000
14 | CCC(Sc1ccc2nnc(-c3ccc(C)s3)n2n1)C(=O)N1CCCCC1 (centres unmarked) [Example 59, 2-((3-(5-methylthiophen-2-yl)-[1,2,4]triazolo[4,3-b]pyridazin-6-yl)thio)-1-(piperidin-1-yl)butan-1-one] | ≥ 5000
15 | CCC(Sc1ccc2nnc(-c3nccs3)n2n1)C(=O)N1CCCCC1 (centres unmarked) [Example 60, 1-(piperidin-1-yl)-2-((3-(thiazol-2-yl)-[1,2,4]triazolo[4,3-b]pyridazin-6-yl)thio)butan-1-one] | 100 to 1000
16 | CCC(Sc1ccc2nnc(-c3ccc(Cl)s3)n2n1)C(=O)O (centres unmarked) [Example 61, 2-((3-(5-chlorothiophen-2-yl)-[1,2,4]triazolo[4,3-b]pyridazin-6-yl)thio)butanoic acid] | ≥ 5000
17 | CCC(Sc1ccc2nnc(-c3ccc(Cl)s3)n2n1)C(=O)N1CCCCC1 (centres unmarked) [Example 62, 2-((3-(5-chlorothiophen-2-yl)-[1,2,4]triazolo[4,3-b]pyridazin-6-yl)thio)-1-(piperidin-1-yl)butan-1-one] | 100 to 1000
18 | CCC(Sc1ccc2nnc(-c3ccc(Cl)s3)n2n1)C(=O)N1CCCC1 (centres unmarked) [Example 63, 2-((3-(5-chlorothiophen-2-yl)-[1,2,4]triazolo[4,3-b]pyridazin-6-yl)thio)-1-(pyrrolidin-1-yl)butan-1-one] | 100 to 1000
19 | CCC(Sc1ccc2nnc(-c3ccsc3)n2n1)C(=O)N1CCCCC1 (centres unmarked) [Example 64, 1-(piperidin-1-yl)-2-((3-(thiophen-3-yl)-[1,2,4]triazolo[4,3-b]pyridazin-6-yl)thio)butan-1-one] | 100 to 1000

Row | SMILES | IC50 [nM]
20 | CCOC(=O)C(CC)Sc1ccc2nnc(-c3ccc(OC)cc3)n2n1 (centres unmarked) [Example 65, ethyl 2-((3-(4-methoxyphenyl)-[1,2,4]triazolo[4,3-b]pyridazin-6-yl)thio)butanoate] | ≥ 5000
21 | CCC(Sc1ccc2nnc(-c3ccc(OC)cc3)n2n1)C(N)=O (centres unmarked) [Example 66, 2-((3-(4-methoxyphenyl)-[1,2,4]triazolo[4,3-b]pyridazin-6-yl)thio)butanamide] | 100 to 1000
22 | CCC(Sc1ccc2nnc(-c3ccc(OC)cc3)n2n1)C(=O)N1CCCCC1 (centres unmarked) [Example 67, 2-((3-(4-methoxyphenyl)-[1,2,4]triazolo[4,3-b]pyridazin-6-yl)thio)-1-(piperidin-1-yl)butan-1-one] | 100 to 1000
23 | CCOC(=O)C(CC)Sc1ccc2nnc(-c3ccccc3OC)n2n1 (centres unmarked) [Example 68, ethyl 2-((3-(2-methoxyphenyl)-[1,2,4]triazolo[4,3-b]pyridazin-6-yl)thio)butanoate] | ≥ 5000
24 | CCC(Sc1ccc2nnc(-c3ccccc3OC)n2n1)C(N)=O (centres unmarked) [Example 69, 2-((3-(2-methoxyphenyl)-[1,2,4]triazolo[4,3-b]pyridazin-6-yl)thio)butanamide] | ≥ 5000
25 | CCC(Sc1ccc2nnc(-c3ccccc3OC)n2n1)C(=O)N1CCCCC1 (centres unmarked) [Example 70, 2-((3-(2-methoxyphenyl)-[1,2,4]triazolo[4,3-b]pyridazin-6-yl)thio)-1-(piperidin-1-yl)butan-1-one] | ≥ 5000
26 | CCOC(=O)C(CC)Sc1ccc2nnc(-c3cccc(OC)c3)n2n1 (centres unmarked) [Example 71, ethyl 2-((3-(3-methoxyphenyl)-[1,2,4]triazolo[4,3-b]pyridazin-6-yl)thio)butanoate] | 1000 to 5000
27 | CCC(Sc1ccc2nnc(-c3cccc(OC)c3)n2n1)C(N)=O (centres unmarked) [Example 72, 2-((3-(3-methoxyphenyl)-[1,2,4]triazolo[4,3-b]pyridazin-6-yl)thio)butanamide] | 100 to 1000
28 | CCC(Sc1ccc2nnc(-c3cccc(OC)c3)n2n1)C(=O)N1CCCCC1 (centres unmarked) [Example 73, 2-((3-(3-methoxyphenyl)-[1,2,4]triazolo[4,3-b]pyridazin-6-yl)thio)-1-(piperidin-1-yl)butan-1-one] | 100 to 1000
29 | CCOC(=O)C(CC)Sc1ccc2nnc(-c3ccccc3F)n2n1 (centres unmarked) [Example 74, ethyl 2-((3-(2-fluorophenyl)-[1,2,4]triazolo[4,3-b]pyridazin-6-yl)thio)butanoate] | 1000 to 5000
30 | CCOC(=O)C(CC)Sc1ccc2nnc(-c3cccc(F)c3)n2n1 (centres unmarked) [Example 75, ethyl 2-((3-(3-fluorophenyl)-[1,2,4]triazolo[4,3-b]pyridazin-6-yl)thio)butanoate] | 1000 to 5000
31 | CCOC(=O)C(CC)Sc1ccc2nnc(-c3ccc(F)c(F)c3)n2n1 (centres unmarked) [Example 76, ethyl 2-((3-(3,4-difluorophenyl)-[1,2,4]triazolo[4,3-b]pyridazin-6-yl)thio)butanoate] | 1000 to 5000
32 | CCOC(=O)C(CC)Sc1ccc2nnc(-c3ccc(C(F)(F)F)cc3)n2n1 (centres unmarked) [Example 77, ethyl 2-((3-(4-(trifluoromethyl)phenyl)-[1,2,4]triazolo[4,3-b]pyridazin-6-yl)thio)butanoate] | ≥ 5000
33 | CCC(Sc1ccc2nnc(-c3ccc(C(F)(F)F)cc3)n2n1)C(N)=O (centres unmarked) [Example 78, 2-((3-(4-(trifluoromethyl)phenyl)-[1,2,4]triazolo[4,3-b]pyridazin-6-yl)thio)butanamide] | ≥ 5000
34 | CCC(Sc1ccc2nnc(-c3ccc(F)c(F)c3)n2n1)C(N)=O (centres unmarked) [Example 79, 2-((3-(3,4-difluorophenyl)-[1,2,4]triazolo[4,3-b]pyridazin-6-yl)thio)butanamide] | 1000 to 5000
35 | CCC(Sc1ccc2nnc(-c3ccccc3F)n2n1)C(N)=O (centres unmarked) [Example 80, 2-((3-(2-fluorophenyl)-[1,2,4]triazolo[4,3-b]pyridazin-6-yl)thio)butanamide] | 100 to 1000
36 | CCC(Sc1ccc2nnc(-c3cccc(F)c3)n2n1)C(N)=O (centres unmarked) [Example 81, 2-((3-(3-fluorophenyl)-[1,2,4]triazolo[4,3-b]pyridazin-6-yl)thio)butanamide] | 100 to 1000
37 | CCOC(=O)C(CC)Oc1ccc2nnc(-c3cccs3)n2n1 (centres unmarked) [Example 82, ethyl 2-((3-(thiophen-2-yl)-[1,2,4]triazolo[4,3-b]pyridazin-6-yl)oxy)butanoate] | ≥ 5000
38 | CCC(Oc1ccc2nnc(-c3cccs3)n2n1)C(=O)O (centres unmarked) [Example 83, 2-((3-(thiophen-2-yl)-[1,2,4]triazolo[4,3-b]pyridazin-6-yl)oxy)butanoic acid] | ≥ 5000
